Experimental data: patent US20250090437A1, “COSMETIC COMPOUNDING AGENT, COSMETIC AND PRODUCTION METHOD THEREOF” (MIYOSHI OIL & FAT CO., LTD., priority 2019, published 2025)

Legend:
[1] = Water retention property and adherability with respect to healthy hair; parameters: species or system human
[2] = Sensory evaluation on healthy hair after using organic ammonium salt; parameters: species or system human; details: healthy hair, 80 wt % aqueous solution
[3] = Sensory evaluation on damaged hair after using organic ammonium salt; parameters: species or system human; details: damaged hair, 80 wt % aqueous solution
keratin [4] = assay: Keratin adherability; details: 1 g keratin in 2 g of 50 wt % aqueous solution, 25° C., 24 hours
Experimental: Here, 1 g of a powdery keratin (by Tokyo Chemical Industry Co., Ltd.) (pre-test keratin) was added to 2 g of a 50 wt % aqueous solution of each of the compounds B11, B23, B26 and B27, followed by performing stirring at 25° C. for 24 hours. After stirring, filtration was performed, and a powdery keratin obtained was then dried so as to obtain a keratin that had been treated (post-test keratin).
A rate of compound adhesion to keratin was calculated with the following formula.

keratin [5] = assay: Stabilization effect of hair treatment agent on keratin (IR, 130° C., seven days); details: treated keratin after 130° C. for seven days
Experimental: Here, 0.3 g of the keratin that had been treated in 4-1 was placed into a thermostatic device of 130° C. and left to stand still therein for seven days. After seven days, an IR spectrum of the keratin obtained was measured; by measuring an absorption derived from the α-helix secondary structure of amide, a stabilization effect of the hair treatment agent on the structure of keratin was evaluated.
Next, IR measurement was carried out after performing the heating test at 130° C. to obtain peaks derived from each amide and an intensity ratio(s) thereof to a reference peak (reference peak (derived from C—N) 1086 cm^−1, peak 1654 cm^−1 derived from the α-helix secondary structure of amide). The intensity ratio (X) was evaluated as “intensity of reference peak:intensity of peak derived from amide=1:X,” by reading the absorption intensity of the reference peak and the intensity of the peak derived from amide.

[6] = Affinity to hair (contact angle); details: 50 wt % aqueous solution; condition B (hair iron, 160° C.)
[7] = Permeability to skin (horny layer tape stripping method); assay type: in vivo; details: extraction liquid, an hour after application to the arm, HPLC
Experimental: Skin permeability was evaluated by a horny layer tape stripping method. […] A sample was applied to the arm and then left thereon for an hour before performing tape stripping on the horn by eight layers. An adhered substance on this tape was then extracted with an ion-exchange water over the course of 10 min, followed by filtrating an extraction liquid thus obtained with a 0.2 μm filter, and then quantifying, via HPLC, the amount of each of the compounds C20, C64 and C97 in each extraction liquid filtrated.

[8] = Surface resistance measurement of organic ammonium salt; details: 0.7 g applied to polyurethane artificial leather; liquid state; uncoated greater than 4×10^11Ω

OCC(O)CO [Compound A52, glycerin, reference compound]
Post-test moisture rate ([1]; healthy hair immersed 60 min in 80 wt % aqueous solution, after 24 hours at 40° C., 35 to 40% RH, pre-test 7.6%): 5.3% | Compound adhesion rate ([1]; healthy hair immersed 60 min in 80 wt % aqueous solution, listed as B26): 1.0% | Rate of reduction in moisture ([1]; healthy hair, 80 wt % aqueous solution, 24 hours at 40° C., 35 to 40% RH): 30% | After air drying: Cohesiveness of hair [2]: Δ~X | After air drying: Elasticity/Resilience [2]: Δ~X | After air drying: Finger-combing capability [2]: Δ~X | After air drying: Flexibility [2]: Δ~X | After air drying: Gloss of hair [2]: Δ~X | After air drying: Moist feeling [2]: Δ~X | After air drying: Non-stickiness of hair surface [2]: Δ~X | After air drying: Smoothness of hair surface [2]: Δ~X | After air drying: Texture [2]: Δ~X | After air drying: Volume increase [2]: Δ~X | When washing: Finger-combing capability ([2]; versus uncoated hair bundle): ◯ | After air drying: Cohesiveness of hair [3]: Δ~X | After air drying: Elasticity/Resilience [3]: Δ~X | After air drying: Smoothness of hair surface [3]: Δ~X | After air drying: Suppression of hair waviness [3]: Δ~X | When washing: Finger-combing capability [3]: Δ~X | Rate of compound adhesion to keratin (keratin [4]): 11.0% | α-helix secondary structure of keratin after heating (keratin [5]): maintained | Contact angle of water droplet on treated hair [6]: not indifferent from that of the untreated product | Compound concentration ([7]; Tape stripping layer 1): 0.030 ml/L | Compound concentration ([7]; Tape stripping layer 2): 0.014 ml/L | Compound concentration ([7]; Tape stripping layer 3): 0.009 ml/L | Compound concentration ([7]; Tape stripping layer 4): 0.009 ml/L | Compound concentration ([7]; Tape stripping layer 5): 0.008 ml/L | Compound concentration ([7]; Tape stripping layer 6): 0.006 ml/L | Compound concentration ([7]; Tape stripping layer 7): 0.006 ml/L | Compound concentration ([7]; Tape stripping layer 8): 0.006 ml/L | Surface resistance value [8]: 5×10^8 Ω
